In PMC12902737 (Biotechnology and Applied Biochemistry, 2025):
Like-named read-outs stand apart in the source and are kept apart here.

Key:
[1] = target: ALR2 enzyme (Ovis aries, UniProt A0ACI6S8R2); experiment: ALR2 enzyme activity / in vitro inhibition (NADPH absorbance decrease at 340 nm, DL-glyceraldehyde substrate); format: biochemical
Method: By tracking the shift in absorbance at 340 nm brought on by a decrease in NADPH, ALR2 activity was ascertained. The reaction mixture for ALR2 activity consists of 0.8 M Na‐phosphate buffer (pH = 5.5), NADPH (0.11 mM), DL‐glyceraldehyde (4.7 mM), and enzyme solution [36, 37]. […] Every measurement was taken three times.
The K I values and inhibition types were ascertained using the Lineweaver and Burk curves (Figure 5).

[2] = system: ALR2; parameters: method as in ref 80 (Racowitz et al.); settings: ref 80 (Racowitz et al.); cited from earlier work
[3] = system: ALR2; parameters: method as in ref 79 (Sever et al.); settings: ref 79 (Sever et al.); cited from earlier work

Molecule | Inhibition type ([1]; Lineweaver-Burk curves) | also measured
O=[N+]([O-])c1ccc(-c2ccon2)cc1 [Compound c, 3‐(4‐nitrophenyl) isoxazole] | Competitive | 
CC(/C=C1\SC(=S)N(CC(=O)O)C1=O)=C\c1ccccc1 [EPR, Epalrestat, reference compound] |  | Inhibition type [1]: Noncompetitive
Clc1ccc(-c2ccon2)cc1 [b, 3‐(4‐chlorophenyl) isoxazole] | Competitive | 
Brc1ccc(-c2ccon2)cc1 [d, 3‐(4‐bromophenyl) isoxazole] | Competitive | 
Fc1ccc(-c2ccon2)cc1 [e, 3‐(4‐fluorophenyl) isoxazole] | Competitive | 
Fc1ccc(-c2ccno2)cc1 [f, 5‐(4‐fluorophenyl) isoxazole] | Competitive | 
Clc1ccc(-c2ccno2)cc1 [g, 5‐(4‐chlorophenyl) isoxazole] | Competitive | 
COc1ccc(-c2ccno2)cc1 [h, 5‐(4‐methoxyphenyl) isoxazole] | Competitive | 
O=C(O)Cc1nn(Cc2ccc(Br)cc2F)c(=O)c2ccccc12 [ponalrestat] |  | IC50 [2]: 80 nM
O=c1c(O)c(-c2ccc(O)c(O)c2)oc2cc(O)cc(O)c12 [quercetin] |  | IC50 [3]: 3230 nM
O=C1NC(=O)[C@@]2(CCOc3ccc(F)cc32)N1 [sorbinil] |  | IC50 [2]: 3420 ± 20 nM
Isoxazole | Noncompetitive | Ki ([1]; mean ± standard error of mean, Lineweaver-Burk curves): 89.5 ± 4.68 nM; IC50 ([1]; mean ± standard error of mean, from Activity (%) vs compound graphs): 43 ± 1.64 nM
